Reference: paper PMC5504357, “Antifungal Potential of Copper(II), Manganese(II) and Silver(I) 1,10-Phenanthroline Chelates Against Multidrug-Resistant Fungal Species Forming the Candida haemulonii Complex: Impact on the Planktonic and Biofilm Lifestyles” (Frontiers in Microbiology, 2017)

Assays:
[1] = system: Candida haemulonii complex; assay: Biofilm-growing cells, overall across isolates; assay type: cell-based; details: for Overall GM-bMIC: geometric mean across strains, values marked * do not include LIP Ch4 (>512)
Procedure: (§1) The effect of the compounds on biofilm-growing cells was determined using the previously described microtiter-based technique (Ramage et al., [2001]). The fungi (10^6 yeast cells) were incubated for 48 h at 37°C in 96-well polystyrene microtiter plates (Corning®, Corning Incorporated, USA) containing Sabouraud-dextrose broth to accommodate biofilm formation. Following biofilm formation, the culture medium was aspirated and non-adherent cells removed by thoroughly washing the wells three times with sterile PBS (0.15 M NaCl, 0.01 M phosphate buffer, pH 7.2). Afterwards, the compounds, at the same concentrations used in the planktonic assays, were added to the wells, and the plates were incubated for further 48 h at 37°C. The metabolic activity was then evaluated using a colorimetric assay that measures the metabolic reduction of 2,3-bis (2-methoxy-4-nitro-5-sulfophenyl)-5-[(phenylamino) carbonyl]-2H-tetrazolium hydroxide (XTT; Sigma-Aldrich) to a water-soluble, brown formazan product (Peeters et al., [2008]). The biofilm MIC (bMIC) for each compound was established as the minimal concentration capable of inhibiting 50% of metabolic activity when compared to compound-free wells (Ziccardi et al., [2015]).

[2] = system: C. haemulonii complex; assay: Planktonic growth, overall across all nine isolates; assay type: cell-based, Candida haemulonii complex; details: for Overall GM-MIC / MIC: geometric mean across all nine strains; for MIC: in μM, read-out: Overall GM-MIC
From the text: (§2) Three clinical isolates of each species that form the C. haemulonii complex were used in this study: C. haemulonii (LIPCh4 from finger nail, LIPCh7 from toe nail, and LIPCh12 from blood), C. duobushaemulonii (LIPCh1 from finger nail, LIPCh6 from toe nail, and LIPCh8 from blood) and C. haemulonii var. vulnera (LIPCh5 from toe nail, LIPCh9 from urine, and LIPCh11 from blood) (Ramos et al., [2015]). The fungal isolates were identified by the automatized system VITEK® 2 and then characterized by ITS1-5.8S-ITS2 gene sequencing (Ramos et al., [2015]). Fungal cells were cultured in Sabouraud-dextrose medium under constant agitation (130 rpm) for 48 h at 37°C. Human lung adenocarcinoma A549 cells were maintained in culture flasks containing DMEM medium supplemented with 10% fetal bovine serum at 37°C in an atmosphere of 5% CO2.
(§3) Susceptibility profile assays were performed in accordance with the broth microdilution protocol described in the document M27-A3 published by the Clinical and Laboratory Standards Institutes (CLSI, [2008]). Samples of the test chelates were dissolved in DMSO (500 μL) and then serially diluted in a 96-well plate containing RPMI 1640 (Sigma-Aldrich, USA) to give the concentration range of 0.0625-32 mg/L. Aqueous solutions of the metal-free phen ligand and the simple metal salts, MnCl2, CuCl2, and AgNO3, were also screened over the same concentration range. Caspofungin (Sigma-Aldrich) was used as a classical antifungal agent able to block the growth of all clinical isolates of C. haemulonii species as previously reported by our research group (Ramos et al., [2015]). Water dilutions containing DMSO concentrations corresponding to those used to prepare the drug solutions were assessed in parallel. Untreated and compound-treated fungal cells were incubated at 37°C for 48 h and the minimal inhibitory concentration (MIC) was established as the lowest compound concentration where no cellular growth could be detected by visual inspection in accordance to the CLSI recommendation. The geometric mean of the MIC values (GM-MIC) of each compound against all the fungal isolates was calculated using the software, Microsoft Office Excel 2013.

[3] = system: Candida haemulonii var. vulnera; assay: Planktonic growth, broth microdilution (CLSI M27-A3), MIC; assay type: cell-based; details: for GM-MIC: geometric mean of three C. haemulonii var. vulnera isolates; for MIC: planktonic, 48 h, 37°C
From the text: as §2, §3

[4] = system: Candida duobushaemulonii; assay: as above; assay type: cell-based; details: for GM-MIC: geometric mean of three C. duobushaemulonii isolates; for MIC: planktonic, 48 h, 37°C
From the text: as §2, §3

[5] = system: Candida haemulonii; assay: as above; assay type: cell-based; details: for GM-MIC: geometric mean of three C. haemulonii isolates; for MIC: planktonic, 48 h, 37°C
From the text: as §2, §3

[6] = system: A549 cells; assay: Mammalian cell toxicity (MTT assay) and selectivity index; assay type: cell-based, Human; details: MTT, 48 h incubation
From the text: as §2
The cytotoxicity was evaluated using the MTT [3-(4,5-dimethylthiazol-2-yl)-2,5-diphenyl tetrazolium bromide] (Sigma-Aldrich) assay (Mosmann, [1983]). A549 cells (10^4) were seeded into tissue culture plates (TPP, Switzerland) and cultured for 24 h at 37°C in a 5% CO2 in order to obtain cellular confluence. The wells were then washed twice with DMEM to remove non-adherent cells and the test compounds were added (in concentrations ranging from 0.0313 to 512 μg/mL) to plates containing DMEM, followed by a 48 h incubation period under the same conditions mentioned above. The cellular viability was evaluated by adding MTT to each well and incubating the plates in the dark for 3 h, allowing the viable cells containing active mitochondrial dehydrogenase enzymes to metabolize MTT-tetrazolium salt into purple formazan. The formazan crystals were then dissolved in DMSO (100 μL) and the absorbance (450 nm) measured using a Thermomax Molecular Device microplate reader. The concentration capable of reducing cellular viability by 50% (CC50) was calculated, and the selectivity index (SI) determined using the following equation: A549 CC50/C. haemulonii complex GM-MIC.

[7] = system: Candida haemulonii var. vulnera; assay: Biofilm-growing cells, XTT assay, bMIC; assay type: cell-based; details: for GM-bMIC: geometric mean, C. haemulonii var. vulnera isolates; for bMIC: mature biofilm, 48 h, 50% inhibition of metabolic activity
Procedure: as §1

[8] = system: Candida duobushaemulonii; assay: Biofilm-growing cells, XTT assay, bMIC; assay type: cell-based; details: for GM-bMIC: geometric mean, C. duobushaemulonii isolates; for bMIC: mature biofilm, 48 h, 50% inhibition of metabolic activity
Procedure: as §1

[9] = system: Candida haemulonii; assay: Biofilm-growing cells, XTT assay, bMIC; assay type: cell-based; details: for GM-bMIC: geometric mean, C. haemulonii isolates, values marked * do not include LIP Ch4 (>512); for bMIC: mature biofilm, 48 h, 50% inhibition of metabolic activity
Procedure: as §1

Compound | Overall GM-bMIC ([1]; in μM) [µM] | Overall GM-bMIC [1] [mg/L] | Overall GM-MIC [2] [µg/mL] | MIC [2] [µM] | GM-MIC [3] [µg/mL] | MIC ([3]; isolate LIP Ch5) [µg/mL] | MIC ([3]; isolate LIP Ch9) [µg/mL] | MIC ([3]; isolate LIP Ch11) [µg/mL] | GM-MIC [4] [µg/mL] | MIC ([4]; isolate LIP Ch1) [µg/mL] | MIC ([4]; isolate LIP Ch6) [µg/mL] | MIC ([4]; isolate LIP Ch8) [µg/mL] | GM-MIC [5] [µg/mL] | MIC ([5]; isolate LIP Ch4) [µg/mL] | MIC ([5]; isolate LIP Ch7) [µg/mL] | MIC ([5]; isolate LIP Ch12) [µg/mL] | A549 (CC50) [6] [µg/mL] | GM-bMIC [7] [mg/L] | bMIC ([7]; isolate LIP Ch5) [mg/L] | bMIC ([7]; isolate LIP Ch9) [mg/L] | further results
O=[N+]([O-])[O-].[Ag+] [AgNO3, reference compound] | 172 | 29.34 | 0.63 | 3.93 | 0.5 | 0.5 | 0.5 | 0.5 | 0.63 | 0.5 | 0.5 | 1 | 0.79 | 1 | 0.5 | 1 | 16.98 | 40.32 | 128 | 64 | decrease in activity on going from planktonic to biofilm cells ([1]; biofilm MIC versus planktonic MIC): 43.8 fold; effect on planktonic fungal growth/viability (in words) ([2]; nine clinical isolates, 0.0625-32 mg/L): appreciably deterred fungal growth; bMIC ([7]; isolate LIP Ch13): 8 mg/L; GM-bMIC [8]: 32 mg/L; bMIC ([8]; isolate LIP Ch1): 16 mg/L; bMIC ([8]; isolate LIP Ch6): 16 mg/L; bMIC ([8]; isolate LIP Ch8): 128 mg/L; GM-bMIC [9]: 16^* mg/L; bMIC ([9]; isolate LIP Ch4): >512 mg/L; bMIC ([9]; isolate LIP Ch7): 8 mg/L; bMIC ([9]; isolate LIP Ch14): 32 mg/L
CCO.O.O.O.O.O.O.O=C([O-])c1cccc(C(=O)[O-])c1.[Cu+2].c1cnc2c(c1)ccc1cccnc12.c1cnc2c(c1)ccc1cccnc12 [compound 3, [Cu(isoph)(phen)2].6H2O.EtOH] | 19.95 | 14.81 | 6.86 | 9.21 | 6.35 | 4 | 8 | 8 | 5.04 | 4 | 8 | 4 | 10.08 | 8 | 8 | 16 | 0.89 | 12.70 | 16 | 8 | bMIC ([7]; isolate LIP Ch13): 16 mg/L; GM-bMIC [8]: 12.70 mg/L; bMIC ([8]; isolate LIP Ch1): 32 mg/L; bMIC ([8]; isolate LIP Ch6): 8 mg/L; bMIC ([8]; isolate LIP Ch8): 8 mg/L; GM-bMIC [9]: 20.16 mg/L; bMIC ([9]; isolate LIP Ch4): 32 mg/L; bMIC ([9]; isolate LIP Ch7): 16 mg/L; bMIC ([9]; isolate LIP Ch14): 16 mg/L
CCO.O=C([O-])CCCCCCC(=O)[O-].[Cu+2].[Cu+2].[O-][Cl+3]([O-])([O-])[O-].[O-][Cl+3]([O-])([O-])[O-].c1cnc2c(c1)ccc1cccnc12.c1cnc2c(c1)ccc1cccnc12.c1cnc2c(c1)ccc1cccnc12.c1cnc2c(c1)ccc1cccnc12 [compound 5, [Cu2(oda)(phen)4](ClO4)2.2.76H2O.EtOH] | 13.19 | 17.28 | 9.33 | 7.09 | 10.08 | 8 | 16 | 8 | 8 | 8 | 8 | 8 | 10.08 | 8 | 8 | 16 | 0.98 | 16 | 32 | 8 | bMIC ([7]; isolate LIP Ch13): 16 mg/L; GM-bMIC [8]: 16 mg/L; bMIC ([8]; isolate LIP Ch1): 32 mg/L; bMIC ([8]; isolate LIP Ch6): 8 mg/L; bMIC ([8]; isolate LIP Ch8): 16 mg/L; GM-bMIC [9]: 20.16 mg/L; bMIC ([9]; isolate LIP Ch4): 32 mg/L; bMIC ([9]; isolate LIP Ch7): 16 mg/L; bMIC ([9]; isolate LIP Ch14): 16 mg/L
